What was measured:
[1] = target: recombinant RORγ Ligand Binding Domain (LBD) protein (Homo sapiens (Human), UniProt P51449); assay: Radio-Ligand RORγ Binding Assay (Assay 1); conditions: competition with 25-hydroxy [26,27-3H]-cholesterol, SPA
Method in brief: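 His-GST-fused RORγ ligand-binding domain (24 nM solution) competed between compounds and tritiated 25-hydroxycholesterol (8.6 nM solution), read by SPA after brief rt incubations in pH 7.4 HEPES/glycerol/detergent buffer. Four-parameter curve fitting gave IC50 at inflection, converted to Ki using radioligand concentration and KD.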

[2] = target: full-length RORγt in Jurkat cells (Homo sapiens (Human), UniProt P51449); assay: RORγt 5×RORE Assay in Jurkat Cells (Assay 2); type: cell-based; conditions: 5×RORE Nanoluc luciferase reporter
Sequence of full-length RORγt in Jurkat cells (P51449 other isoform, or with tags, fused parts or gaps): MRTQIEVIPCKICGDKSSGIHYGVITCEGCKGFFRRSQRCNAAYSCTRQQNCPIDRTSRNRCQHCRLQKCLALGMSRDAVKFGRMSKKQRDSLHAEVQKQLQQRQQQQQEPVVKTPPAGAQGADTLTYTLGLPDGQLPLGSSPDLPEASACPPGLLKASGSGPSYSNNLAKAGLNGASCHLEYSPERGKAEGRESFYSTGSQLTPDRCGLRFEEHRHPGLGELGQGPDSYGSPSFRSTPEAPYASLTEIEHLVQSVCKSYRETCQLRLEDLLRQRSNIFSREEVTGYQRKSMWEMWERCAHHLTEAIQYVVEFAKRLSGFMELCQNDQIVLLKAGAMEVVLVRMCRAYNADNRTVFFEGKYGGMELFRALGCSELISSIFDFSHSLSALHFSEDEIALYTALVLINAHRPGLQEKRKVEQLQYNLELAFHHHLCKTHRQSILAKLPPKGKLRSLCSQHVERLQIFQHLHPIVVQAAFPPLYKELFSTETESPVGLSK

Sequence of recombinant RORγ Ligand Binding Domain (LBD) protein (P51449 269-508): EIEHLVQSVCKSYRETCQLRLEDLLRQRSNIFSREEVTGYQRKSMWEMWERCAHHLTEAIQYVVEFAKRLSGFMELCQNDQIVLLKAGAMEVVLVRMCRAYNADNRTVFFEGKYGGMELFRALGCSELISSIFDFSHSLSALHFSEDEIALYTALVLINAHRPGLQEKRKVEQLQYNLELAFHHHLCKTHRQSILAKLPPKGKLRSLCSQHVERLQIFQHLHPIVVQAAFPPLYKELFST

Compound	Ki [1] [nM]	IC50 [2] [nM]
CCS(=O)(=O)c1ccc([C@H](CO)NC(=O)c2ccc3c(c2)nc(C(F)(F)F)n3Cc2cccc3c2OCO3)cc1 [I-81, (R)-1-(benzo[d][1,3]dioxol-4-ylmethyl)-N-(1-(4-(ethylsulfonyl)phenyl)-2-hydroxyethyl)-2-(trifluoromethyl)-1H-benzo[d]imidazole-5-carboxamide]	< 100	< 100
CCS(=O)(=O)c1ccc(CNC(=O)c2ccc3c(c2)nc(C(F)(F)F)n3Cc2cc(OC)cc(OC)c2)cc1 [I-82, 1-(3,5-dimethoxybenzyl)-N-(4-(ethylsulfonyl)benzyl)-2-(trifluoromethyl)-1H-benzo[d]imidazole-5-carboxamide]	< 100	> 1000
CCS(=O)(=O)c1ccc(CNC(=O)c2ccc3c(c2)nc(C(F)(F)F)n3Cc2ccc(OC)c(C#N)c2)cc1 [I-83, 1-(3-cyano-4-methoxybenzyl)-N-(4-(ethylsulfonyl)benzyl)-2-(trifluoromethyl)-1H-benzo[d]imidazole-5-carboxamide]	< 100	100 to 1000
CCS(=O)(=O)c1ccc(CNC(=O)c2ccc3c(c2)nc(C(F)(F)F)n3Cc2ccc(OC(F)(F)F)cc2)cc1 [I-84, N-(4-(ethylsulfonyl)benzyl)-1-(4-(trifluoromethoxy)benzyl)-2-(trifluoromethyl)-1H-benzo[d]imidazole-5-carboxamide]	< 100	100 to 1000
CCS(=O)(=O)c1ccc(CNC(=O)c2ccc3c(c2)nc(C(F)(F)F)n3Cc2ccc(C#N)cc2)cc1 [I-85, 1-(4-cyanobenzyl)-N-(4-(ethylsulfonyl)benzyl)-2-(trifluoromethyl)-1H-benzo[d]imidazole-5-carboxamide]	< 100	> 1000
CCS(=O)(=O)c1ccc(CNC(=O)c2ccc3c(c2)nc(C(F)(F)F)n3Cc2cccc(OC)c2)cc1 [I-88, N-(4-(ethylsulfonyl)benzyl)-1-(3-methoxybenzyl)-2-(trifluoromethyl)-1H-benzo[d]imidazole-5-carboxamide]	< 100	< 100
CCS(=O)(=O)c1ccc(CNC(=O)c2ccc3c(c2)nc(C(F)(F)F)n3Cc2ccnc(OC)c2)cc1 [I-89, N-(4-(ethylsulfonyl)benzyl)-1-((2-methoxypyridin-4-yl)methyl)-2-(trifluoromethyl)-1H-benzo[d]imidazole-5-carboxamide]	< 100	100 to 1000
CCS(=O)(=O)c1ccc(CNC(=O)c2ccc3c(c2)nc(C(F)(F)F)n3Cc2cccc(C#N)c2)cc1 [I-90, 1-(3-cyanobenzyl)-N-(4-(ethylsulfonyl)benzyl)-2-(trifluoromethyl)-1H-benzo[d]imidazole-5-carboxamide]	< 100	< 100
CCS(=O)(=O)c1ccc(CNC(=O)c2ccc3c(c2)nc(C(F)(F)F)n3C2(c3cccc(C#N)c3)CC2)cc1 [I-92, 1-(1-(3-cyanophenyl)cyclopropyl)-N-(4-(ethylsulfonyl)benzyl)-2-(trifluoromethyl)-1H-benzo[d]imidazole-5-carboxamide]	< 100	100 to 1000
CCS(=O)(=O)c1ccc(CNC(=O)c2ccc3c(c2)nc(C(F)(F)F)n3[C@@H](C)c2cccc(C#N)c2)cc1 [I-93.1, (S)-1-(1-(3-cyanophenyl)ethyl)-N-(4-(ethylsulfonyl)benzyl)-2-(trifluoromethyl)-1H-benzo[d]imidazole-5-carboxamide]	< 100	< 100
CCS(=O)(=O)c1ccc(CNC(=O)c2ccc3c(c2)nc(C(F)(F)F)n3Cc2cc(C#N)ccc2F)cc1 [I-94, 1-(5-cyano-2-fluorobenzyl)-N-(4-(ethylsulfonyl)benzyl)-2-(trifluoromethyl)-1H-benzo[d]imidazole-5-carboxamide]	< 100	100 to 1000
CCS(=O)(=O)c1ccc(CNC(=O)c2ccc3c(c2)nc(C(F)(F)F)n3Cc2cccc3occc23)cc1 [I-95, 1-(benzofuran-4-ylmethyl)-N-(4-(ethylsulfonyl)benzyl)-2-(trifluoromethyl)-1H-benzo[d]imidazole-5-carboxamide]	< 100	< 100
CCS(=O)(=O)c1ccc(CNC(=O)c2ccc3c(c2)nc(C(F)(F)F)n3Cc2cccc3[nH]ncc23)cc1 [I-97, 1-((1H-indazol-4-yl)methyl)-N-(4-(ethylsulfonyl)benzyl)-2-(trifluoromethyl)-1H-benzo[d]imidazole-5-carboxamide]	< 100	< 100
CCS(=O)(=O)c1ccc(CNC(=O)c2ccc3c(c2)nc(C(F)(F)F)n3Cc2cccc3c2OCO3)cc1 [I-98, 1-(benzo[d][1,3]dioxol-4-ylmethyl)-N-(4-(ethylsulfonyl)benzyl)-2-(trifluoromethyl)-1H-benzo[d]imidazole-5-carboxamide]	< 100	< 100
CCS(=O)(=O)c1ccc(CNC(=O)c2ccc3c(c2)nc(C(F)(F)F)n3Cc2cccc(C(=O)OC)c2)cc1 [I-99, methyl 3-((5-((4-(ethylsulfonyl)benzyl)carbamoyl)-2-(trifluoromethyl)-1H-benzo[d]imidazol-1-yl)methyl)benzoate]	< 100	100 to 1000
CCS(=O)(=O)c1ccc(CNC(=O)c2ccc3c(c2)nc(C(F)(F)F)n3Cc2cncc3[nH]ccc23)cc1 [I-100, 1-((1H-pyrrolo[2,3-c]pyridin-4-yl)methyl)-N-(4-(ethylsulfonyl)benzyl)-2-(trifluoromethyl)-1H-benzo[d]imidazole-5-carboxamide]	< 100	100 to 1000
CCS(=O)(=O)c1ccc([C@H](CO)NC(=O)c2ccc3c(c2)nc(C2CC2)n3Cc2cccc3c2OC(C)(C)C3)cc1 [I-101, (R)-2-cyclopropyl-1-((2,2-dimethyl-2,3-dihydrobenzofuran-7-yl)methyl)-N-(1-(4-(ethylsulfonyl)phenyl)-2-hydroxyethyl)-1H-benzo[d]imidazole-5-carboxamide]	< 100	> 1000
CCS(=O)(=O)c1ccc([C@H](CO)NC(=O)c2ccc3c(c2)nc(C2CC2)n3Cc2cccc3c2OCC3)cc1 [I-102, (R)-2-cyclopropyl-1-((2,3-dihydrobenzofuran-7-yl)methyl)-N-(1-(4-(ethylsulfonyl)phenyl)-2-hydroxyethyl)-1H-benzo[d]imidazole-5-carboxamide]	< 100	< 100
CCS(=O)(=O)c1ccc(CNC(=O)c2ccc3c(c2)nc(C2CC2)n3Cc2cc(OC)cc(OC)c2)cc1 [I-103, 2-cyclopropyl-1-(3,5-dimethoxybenzyl)-N-(4-(ethylsulfonyl)benzyl)-1H-benzo[d]imidazole-5-carboxamide]	< 100	100 to 1000
CCS(=O)(=O)c1ccc(CNC(=O)c2ccc3c(c2)nc(C2CC2)n3Cc2ccc(OC(F)(F)F)cc2)cc1 [I-104, 2-cyclopropyl-N-(4-(ethylsulfonyl)benzyl)-1-(4-(trifluoromethoxy)benzyl)-1H-benzo[d]imidazole-5-carboxamide]	< 100	> 1000
CCS(=O)(=O)c1ccc(CNC(=O)c2ccc3c(c2)nc(C2CC2)n3Cc2ccccc2OC(F)(F)F)cc1 [I-106, 2-cyclopropyl-N-(4-(ethylsulfonyl)benzyl)-1-(2-(trifluoromethoxy)benzyl)-1H-benzo[d]imidazole-5-carboxamide]	< 100	100 to 1000
